{"source": "patent US12616663B2", "about": "“Plant-derived exosome-like nanoparticles inhibit bacterial pathogenicity” (priority 2019, dated 2026)", "key": {"[1]": {"system": "P. gingivalis total cell lysates", "assay": "SPR: P. gingivalis total cell lysates run over immobilized liposomes", "format": "binding, Porphyromonas gingivalis", "conditions": "LIP-1 sensor, total cell lysates as analyte", "experimental": "(§1) Liposome preparation. Total lipids from ginger exosome-like nanoparticles (GELNs) were extracted with chloroform:methanol (2:1, v/v). Thin layer chromatography (TLC) was performed with standard PA(34:2). The corresponding PA band was excised from the TLC plate and remaining bands were pool together. GELNs total lipids, PA depleted lipids and PA(34:2) were completely dried under stream of nitrogen gas. The lipid film was suspended in HEPES-buffered saline (HBS) running buffer (20 mM HEPES, 150 mM NaCl, pH 7.4) and gently vortexed and sonicated for 10 minutes until clear solution was formed. The liposome suspension was extruded through a poly carbonated membrane filter syringe with pore size of 100 nm. The size of liposome was confirmed by NanoSight NS300 (Malvern Panalytical Inc, MA, USA). Total lipids were determined by measuring total phosphate levels.\nSurface Plasmon Resonance (SPR). SPR experiments were conducted on an OPENSPR™ (Nicoya, Lifesciences, ON, CA). All experiments were carried on LIP-1 sensor (Nicoya, Lifesciences). Tests were run at flow rate of 20 μl/minute using HBS running buffer (20 mM HEPES, 150 mM NaCl, pH 7.4). First, LIP-1 sensor chip was cleaned with Octyl 0-D-glucopyranoside (40 mM) and CHAPS (20 mM). […] The sensograms were analyzed using TRACEDRAWER™ brand kinetic Analysis software. […]"}, "[2]": {"target": "T1, lysine specific (Kgp) gingipain (Porphyromonas gingivalis, UniProt B2RLK2)", "T1 construct": "endogenous in cells; host or cells: Porphyromonas gingivalis, BugBuster lysate of treated bacteria", "format": "cell-based", "conditions": "GELNs and GELN lipids 2×10^8 and 4×10^8 particles/ml vs PBS control; PA(34:2), aly-miR159a vs control"}, "[3]": {"system": "P. gingivalis attachment to TIGK cells", "assay": "Attachment of P. gingivalis to epithelial cells (ELISA, confocal microscopy)", "format": "cell-based, Porphyromonas gingivalis; human TIGK cells", "conditions": "GELNs vs PBS; total lipids (from 4.0×10^8 particles), 50 nM PA (34:2) vs DMSO; miRNAs vs scrambled control", "experimental": "Culture of TIGK cells. Human telomerase immortalized keratinocytes (TIGKs) derived from gingival epithelium were obtained from Dr. Lamont Laboratory and maintained at 37° C. and 5% CO2 in DERMALIFE®-K brand serum free culture medium (Lifeline Cell Technology, Carlsbad, California, United States of America).\nAttachment to epithelial cells. The amount of P. gingivalis attachment to the surface of gingival epithelial cells were determined. Briefly, telomerase immortalized gingival keratinocytes (TIGKs), derived from primary gingival epithelial cell lines, were cultured in 96-well plates for 24 hours. Then, the cells were fixed with 5% buffered formalin for 1 hour, and washed with PBS. […] Cells were washed with PBS to remove non-adherent bacteria. Then, wells were incubated with P. gingivalis whole-cell antibodies (1:10,000) at 37° C. for 1 hour, then washed with PBS. Binding was detected with a secondary horse radish peroxidase (HRP)-anti-rabbit antibody (1:5,000) and 3,3′,5,5′-tetramethylbenzidine substrate (Sigma), and recorded at 450 nm.\nThen, the TIGK cells were fixed with 5% buffered formalin for 10 minutes. P. gingivalis cells were stained with an antibody raised against P. gingivalis (1:1000 dilution) incubated for 3 hour at room temperature. After extensive washing with PBS, cells were incubated with ALEXAFLUOR® 568-conjugated IgG (1:5000 dilution) for 1 hour at room temperature. […]"}, "[4]": {"system": "outer membrane protein (OMP) mRNA", "format": "cell-based, Porphyromonas gingivalis"}, "[5]": {"system": "P. gingivalis invasion into TIGK cells", "assay": "P. gingivalis invasion, antibiotic protection assay (CFU)", "format": "cell-based, Porphyromonas gingivalis; human TIGK cells", "conditions": "GELNs total lipids or PA (34:2) vs DMSO control; miRNA-transduced bacteria"}, "fimbrillin (fimA)": {"system": "fimbrillin (fimA)", "assay": "fimA expression (real-time PCR, western blot)", "format": "cell-based, Porphyromonas gingivalis", "conditions": "GELNs, total lipids or PA (34:2) 6 hours vs DMSO", "experimental": "(§2) RNA isolation and quantitative real time PCR (qRT-PCR). Total RNA was isolated from P. gingivalis and TIGK cells using TRIZOL™ brand reagent according to the manufacturer's protocol (Invitrogen). RNA (1 μg) was converted into cDNA with ISCRIPT™ brand cDNA synthesis kit (Bio-Rad, Hercules, California, United States of America). qRT-PCR was performed for quantification of gene expression, cDNA samples were amplified with SSOFAST™ EVAGREEN® Supermix brand qRT-PCR cocktail in CFX96 Real-time PCR system (Bio-Rad). The mRNA expression was quantified by ΔΔCt method using 16S rRNA expression as an internal control for bacterial gene expression."}, "[6]": {"system": "T9SS family members porK, porL, porM, porN, porP, porQ, porT, porV, porW, porX, porY, and sov", "assay": "qPCR of T9SS family member expression", "format": "cell-based, Porphyromonas gingivalis", "conditions": "GELNs 4.0×10^8 particles/ml, lipids from 4.0×10^8 particles, 5 μg PA (34:2) 6 hours; miRNAs 24 hours vs scrambled", "experimental": "as §2\nTo further determine the molecular mechanisms underlying GELN-mediated inhibition of P. gingivalis gliding motility, the roles of GELNs, GELNs lipids, and GELN-derived miRNAs in modulating the expression of genes related to T9SS were determined. P. gingivalis was treated with GELNs (4.0×10^8 particles/ml) and GELNs lipids derived from 4.0×10^8 particles and 5 μg of PA (34:2) for 6 hours, and miRNAs aly-miR159a, gma-miR166u, and gma-miR166p were transduced into P. gingivalis by incubation for 24 hours. […] Further, it was determined that aly-miR159a-3p has potential binding sites in the T9SS C-terminal target domain containing protein PGN_0152; see FIG. 8H)."}, "[7]": {"system": "HBP35 synthetic peptide (functional domain of hemin binding protein 35)", "assay": "SPR: HBP35 synthetic peptide as analyte over immobilized liposomes", "parameters": "species or system Porphyromonas gingivalis", "conditions": "liposomes immobilized on LIP-1 sensor; non-specific peptide as negative control", "experimental": "as §1, with “The size of liposome was confirmed by NanoSight NS300 (Malvern Panalytical Inc, MA, USA).” left out\nSurface Plasmon Resonance (SPR). […] The sensograms were analyzed using TRACEDRAWER™ brand kinetic Analysis software.\nWhether the HBP35 synthetic peptide directly bound to PA (34:2) and/or PA (34:1) of GELNs lipids was also tested. […] The lipid-protein interactions were determined by SPR sensograms. Fluorescent confocal micrographs of P. gingivalis labelled with PKH67 (green fluorescence) and GELNs and LipidG liposomes were labelled with PKH26 (red fluorescence). […] Particles and liposomes taken up by P. gingivalis were also quantified by flow cytometry. […]"}, "P. gingivalis [8]": {"system": "P. gingivalis", "assay": "Gliding motility in U shaped glass tube with 0.2% agar", "format": "cell-based, Porphyromonas gingivalis", "conditions": "GELNs 4.0×10^8 particles/ml, PA (34:2) 5 μg/ml vs PBS; miRNAs vs scrambled miRNA; 48 hours", "experimental": "Gliding motility. Gliding motility of P. gingivalis was measured. P. gingivalis was reacted with GELNs (4×10^8 particles/ml) or total lipids extracted from GELNs or miRNAs such as aly-miR-159a-3p, gma-miR166u, and gma-miR166p. A sterile “U” shaped glass tube containing 0.2% agar as suspension medium was produced. P. gingivalis (100 μl) was inoculated one edge of the tube and incubated at anaerobic chamber for 48 hours, the location of bacteria was visualized by cloudiness, and distance movement of P. gingivalis was calculated.\nTransferring gingipain from intracellular locations to the cell surface is a critical step in the pathogenesis of P. gingivalis. Gingipains are synthesized with an N-terminal signal peptide targeting them to the Sec translocon where they are exported through the outer-membranes via a novel secretion system referred to as type IX Secretion System (T9SS). T9SS plays a critical role in bacterial gliding motility that could contribute to P. gingivalis pathogenesis. Therefore, it was determined whether GELNs, GELN-derived miRNAs, and/or GELN lipids could play a role in inhibition of gliding motility of P. gingivalis. P. gingivalis were pretreated with GELNs (4.0×10^8 particles/ml) or PA (34:2; 5 μg/ml) or transduced with GELN-derived aly-miR159a, gma-miR166u, or gma-miR166p. […]"}, "[9]": {"system": "rod shape determining protein (RodA) mRNA", "format": "cell-based, Porphyromonas gingivalis"}, "[10]": {"system": "AraC transcription factor mRNA", "format": "cell-based, Porphyromonas gingivalis"}, "hemagglutinin (HA) mRNA": {"system": "hemagglutinin (HA) mRNA", "format": "cell-based, Porphyromonas gingivalis"}, "P. gingivalis [11]": {"system": "P. gingivalis", "assay": "Bacterial growth, optical density at 600 nm", "format": "cell-based, Porphyromonas gingivalis", "experimental": "Bacterial strain and growth condition. P. gingivalis 33277 was cultured in tryptic soy broth supplemented with yeast extract (1 mg/ml), hemin (5 μg/ml) and menadione (1 μg/ml) and incubated at 37° C. in anaerobic chamber (85% N2, 10% H2, 5% CO2). S. gordonii DL1 was cultured in brain-heart infusion broth media containing 0.5% yeast extract and incubated at anaerobically at 37° C.\nBacterial growth. […] P. gingivalis and S. gordonii growth was determined by measuring optical density at 600 nm."}, "[12]": {"system": "arginine-specific (Rgp) gingipain", "assay": "Gingipain proteolytic activity (N-benzoyl-L-arginine-pNA)", "format": "cell-based, Porphyromonas gingivalis", "conditions": "GELNs and GELN lipids 2×10^8 and 4×10^8 particles/ml vs PBS control; PA(34:2), aly-miR159a vs control", "experimental": "Gingipain proteolytic activity. The proteolytic activity of arginine-specific (Rgp) and lysine specific (Kgp) gingipain was measured. P. gingivalis was cultured to mid-log phase and treated with and without GELNs (2.0-4.0×10^8 particles/ml) for 6 hour. The bacterial cells were collected by centrifugation at 5000 g for 10 minutes, washed, and lysed with BUGBUSTER® brand lysis reagent (Millipore Sigma, Burlington, MA, USA). The chromogenic p-nitroanilide substrates N-benzoyl-L-arginine-pNA or toluenesulfonyl-glycyl-prolyl-L-lysine-pNA (Sigma) were used to measure RgpA/B and Kgp respectively. Bacterial cell lysates (50 μl) were pre-incubated with assay buffer containing 200 mM Tris-HCl, 5 mM CaCl2/150 mM NaCl and supplemented with 10 mM cysteine in 96-well plate, incubated at 37° C. for 10 minutes, and 0.5 mM of specific substrate was added to each well. The rate of substrate hydrolysis and accumulation of p-nitroanillide was monitored spectrophotometrically at 405 nm. The enzyme activity was calculated and given as mOD/min/μl."}}, "data": [{"compound": "CCCCC/C=C\\C/C=C\\CCCCCCCC(=O)O[C@H](COC(=O)CCCCCCCCCCCCCCC)COP(=O)(O)O", "note": "[PA (34:2), 1-palmitoyl-2-linoleoyl-sn-glycero-3-phosphate]", "values": [{"measurement": "interaction of P. gingivalis proteins with immobilized nanoparticles (SPR sensograms)", "setting": "[1]", "result": "able to interact"}, {"measurement": "lysine-specific (Kgp) gingipain activity", "setting": "[2]", "result": "contributed to inhibit"}, {"measurement": "surface attachment of P. gingivalis to TIGK cells (ELISA)", "setting": "[3]", "result": "significantly inhibited surface attachment"}, {"measurement": "outer membrane protein (OMP) mRNA expression", "setting": "[4]", "result": "inhibited"}, {"measurement": "P. gingivalis invasion into TIGK cells", "setting": "[5]", "result": "significant decrease"}, {"measurement": "fimA expression (mRNA and protein levels)", "setting": "fimbrillin (fimA)", "result": "significantly decreased"}, {"measurement": "T9SS family members whose expression was significantly inhibited", "setting": "[6]", "result": "9/12"}, {"measurement": "direct interaction with HBP35 synthetic peptide (SPR sensogram peaks)", "setting": "[7]", "result": "directly interacted"}, {"measurement": "gliding motility of P. gingivalis", "setting": "P. gingivalis [8]", "result": "significantly inhibited the motility"}, {"measurement": "RodA mRNA expression", "setting": "[9]", "result": "inhibited"}, {"measurement": "AraC mRNA expression", "setting": "[10]", "result": "inhibited"}, {"measurement": "hemagglutinin (HA) mRNA expression", "setting": "hemagglutinin (HA) mRNA", "result": "not significant"}, {"measurement": "concentration at which P. gingivalis growth was inhibited", "setting": "P. gingivalis [11]; 0-50 μg/ml tested, 24 hours, very low concentration compared to other lipid compounds", "result": 5, "unit": "µg/mL"}, {"measurement": "arginine-specific (Rgp) gingipain activity", "setting": "[12]", "result": "contributed to inhibit"}]}, {"compound": "WPRVGQLFIALDQTLGIPGFPTFSVCRME [HBP35 synthetic peptide]", "values": [{"measurement": "blocking of GELN lipid-mediated inhibition of P. gingivalis growth", "setting": "P. gingivalis [11]; GELN total lipids (4.0 and 6.0×10^8 particles) pre-incubated with peptide", "result": "significantly blocked"}, {"measurement": "blocking of PA-mediated inhibition of P. gingivalis growth", "setting": "P. gingivalis [11]; PA (34:2) pre-incubated with peptide", "result": "significantly blocked"}]}]}
